Test results from article PMC3064226 (The Journal of Biological Chemistry, 2011).

Target: T1, PfnPrx (His6-nPrx1-164) (Plasmodium falciparum, UniProt Q8IJD0)
T1 sequence (Q8IJD0 1-164): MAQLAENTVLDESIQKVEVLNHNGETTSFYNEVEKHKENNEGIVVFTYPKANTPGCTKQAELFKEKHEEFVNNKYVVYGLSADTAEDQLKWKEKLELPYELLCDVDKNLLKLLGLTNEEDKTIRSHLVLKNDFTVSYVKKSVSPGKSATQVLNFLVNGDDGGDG
Assay: NADPH oxidation at […] nm, coupled to glutathione reductase/GSH/PfGrx1
Format: biochemical
Settings: read-out: apparent Km; 10 μM PfGrx1, 1 mM GSH, 200 μM NADPH, 100 mM HEPES pH 7.6, 1 mM EDTA, 25 °C

**Q.** With `CC(C)(OO)c1ccccc1` [cumene hydroperoxide] as the molecule, how does the Km read?
**A.** ~30 µM
